Results taken from PubChem BioAssay (NCI).
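Five compound concentrations were applied to cells in 96-well plates for 48 hours; endpoints were derived by simple linear interpolation of the resulting dose-response curve. At the TGI there is no net growth.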

What was measured:
Test in all cases: growth of human tumour cells (NCI), 48 h
786-0 renal = system: 786-0 renal
A498 renal = system: A498 renal
A549 NSCLC = system: A549 NSCLC
ACHN renal = system: ACHN renal
BT-549 breast = system: BT-549 breast
CAKI-1 renal = system: CAKI-1 renal
CCRF-CEM leukemia = system: CCRF-CEM leukemia
COLO 205 colon = system: COLO 205 colon
DU-145 prostate = system: DU-145 prostate
EKVX NSCLC = system: EKVX NSCLC
HCT-116 colon = system: HCT-116 colon
HCT-15 colon = system: HCT-15 colon
HL-60(TB) leukemia = system: HL-60(TB) leukemia
HOP-62 NSCLC = system: HOP-62 NSCLC
HOP-92 NSCLC = system: HOP-92 NSCLC
HS 578T breast = system: HS 578T breast
HT29 colon = system: HT29 colon
IGROV1 ovarian = system: IGROV1 ovarian
K-562 leukemia = system: K-562 leukemia
KM12 colon = system: KM12 colon
LOX IMVI melanoma = system: LOX IMVI melanoma
M14 melanoma = system: M14 melanoma
MALME-3M melanoma = system: MALME-3M melanoma
MCF7 breast = system: MCF7 breast
MDA-MB-231 breast = system: MDA-MB-231 breast
MDA-MB-435 = system: MDA-MB-435
MDA-N = system: MDA-N
NCI-H226 lung = system: NCI-H226 lung
NCI-H23 lung = system: NCI-H23 lung
NCI-H460 lung = system: NCI-H460 lung
NCI-H522 lung = system: NCI-H522 lung
NCI/ADR-RES ovarian = system: NCI/ADR-RES ovarian
OVCAR-3 ovarian = system: OVCAR-3 ovarian
OVCAR-4 ovarian = system: OVCAR-4 ovarian
OVCAR-5 ovarian = system: OVCAR-5 ovarian
OVCAR-8 ovarian = system: OVCAR-8 ovarian
PC-3 prostate = system: PC-3 prostate
RPMI-8226 leukemia = system: RPMI-8226 leukemia
RXF 393 renal = system: RXF 393 renal
SF-268 CNS = system: SF-268 CNS
SF-295 CNS = system: SF-295 CNS
SF-539 CNS = system: SF-539 CNS
SK-MEL-2 melanoma = system: SK-MEL-2 melanoma
SK-MEL-28 melanoma = system: SK-MEL-28 melanoma
SK-MEL-5 melanoma = system: SK-MEL-5 melanoma
SK-OV-3 ovarian = system: SK-OV-3 ovarian
SN12C renal = system: SN12C renal
SNB-19 CNS = system: SNB-19 CNS
SNB-75 CNS = system: SNB-75 CNS
SR leukemia = system: SR leukemia
SW-620 colon = system: SW-620 colon
T-47D breast = system: T-47D breast
TK-10 renal = system: TK-10 renal
U251 CNS = system: U251 CNS
UACC-257 melanoma = system: UACC-257 melanoma
UACC-62 melanoma = system: UACC-62 melanoma
HCC-2998 colon = system: HCC-2998 colon
MOLT-4 leukemia = system: MOLT-4 leukemia
UO-31 renal = system: UO-31 renal

Measured: TGI

N#CC1CNC(N)NC1N (stereo unspecified)
> 100 µM: 786-0 renal | A498 renal | A549 NSCLC | ACHN renal | BT-549 breast | CAKI-1 renal | COLO 205 colon | DU-145 prostate | EKVX NSCLC | HCT-116 colon | HCT-15 colon | HL-60(TB) leukemia | HOP-62 NSCLC | HOP-92 NSCLC | HS 578T breast | HT29 colon | IGROV1 ovarian | K-562 leukemia | KM12 colon | LOX IMVI melanoma | M14 melanoma | MALME-3M melanoma | MCF7 breast | MDA-MB-231 breast | MDA-MB-435 | MDA-N | NCI-H226 lung | NCI-H23 lung | NCI-H460 lung | NCI-H522 lung | NCI/ADR-RES ovarian | OVCAR-3 ovarian | OVCAR-4 ovarian | OVCAR-5 ovarian | OVCAR-8 ovarian | PC-3 prostate | RPMI-8226 leukemia | RXF 393 renal | SF-268 CNS | SF-295 CNS | SF-539 CNS | SK-MEL-2 melanoma | SK-MEL-28 melanoma | SK-MEL-5 melanoma | SK-OV-3 ovarian | SN12C renal | SNB-19 CNS | SNB-75 CNS | SR leukemia | SW-620 colon | T-47D breast | TK-10 renal | U251 CNS | UACC-257 melanoma | UACC-62 melanoma
34.6 µM: CCRF-CEM leukemia

CC1(C)OC2C(CO)OC(n3cnc(N)nc3=O)C2O1 (stereo unspecified)
> 100 µM: 786-0 renal | A498 renal | A549 NSCLC | ACHN renal | BT-549 breast | CAKI-1 renal | CCRF-CEM leukemia | COLO 205 colon | DU-145 prostate | EKVX NSCLC | HCC-2998 colon | HCT-116 colon | HCT-15 colon | HL-60(TB) leukemia | HOP-62 NSCLC | HOP-92 NSCLC | HS 578T breast | IGROV1 ovarian | K-562 leukemia | LOX IMVI melanoma | M14 melanoma | MCF7 breast | MDA-MB-231 breast | MDA-MB-435 | MDA-N | MOLT-4 leukemia | NCI-H226 lung | NCI-H23 lung | NCI-H460 lung | NCI-H522 lung | NCI/ADR-RES ovarian | OVCAR-3 ovarian | OVCAR-5 ovarian | OVCAR-8 ovarian | PC-3 prostate | RPMI-8226 leukemia | RXF 393 renal | SF-268 CNS | SF-295 CNS | SF-539 CNS | SK-MEL-2 melanoma | SK-MEL-28 melanoma | SK-MEL-5 melanoma | SK-OV-3 ovarian | SN12C renal | SNB-19 CNS | SR leukemia | SW-620 colon | T-47D breast | TK-10 renal | U251 CNS | UACC-257 melanoma | UACC-62 melanoma | UO-31 renal

CCOC(=O)C1(O)C(=O)C2=C3C(=O)OC(C4OC(=O)c5c(c(O)c(O)c(O)c5C31)-c1c(cc(O)c(O)c1O)C(=O)OC1COC(=O)c3cc(O)c(O)c(O)c3-c3c(cc(O)c(O)c3O)C(=O)OC14)[C@@H]2O (stereo partly specified)
48.6 µM: NCI-H226 lung
39.3 µM: LOX IMVI melanoma
25.9 µM: CAKI-1 renal
30.8 µM: HCT-116 colon
57.2 µM: MOLT-4 leukemia
52.6 µM: CCRF-CEM leukemia
36.8 µM: RXF 393 renal
35.4 µM: COLO 205 colon | SN12C renal
72.7 µM: HL-60(TB) leukemia
86.5 µM: HOP-92 NSCLC
27.8 µM: SK-MEL-5 melanoma
61.5 µM: BT-549 breast
79.5 µM: IGROV1 ovarian
37.8 µM: MDA-N
43.1 µM: UACC-62 melanoma
39.5 µM: NCI-H23 lung | OVCAR-8 ovarian
51.3 µM: HT29 colon
52.9 µM: SF-268 CNS
85 µM: RPMI-8226 leukemia
35.2 µM: ACHN renal
> 100 µM: A498 renal | DU-145 prostate | HOP-62 NSCLC | HS 578T breast | KM12 colon | NCI-H460 lung | NCI/ADR-RES ovarian | PC-3 prostate | SK-MEL-28 melanoma | SK-OV-3 ovarian | SNB-19 CNS | SR leukemia | T-47D breast | UACC-257 melanoma | UO-31 renal
45.1 µM: OVCAR-4 ovarian
56.9 µM: K-562 leukemia
40.8 µM: HCT-15 colon
35.3 µM: OVCAR-5 ovarian
54.5 µM: SW-620 colon
95.8 µM: MALME-3M melanoma
53.6 µM: NCI-H522 lung
38.4 µM: EKVX NSCLC
85.4 µM: OVCAR-3 ovarian
67.6 µM: M14 melanoma
44.2 µM: U251 CNS
95.4 µM: HCC-2998 colon
39.4 µM: 786-0 renal
33.4 µM: MDA-MB-435
43 µM: SF-295 CNS
36.1 µM: MDA-MB-231 breast
94.7 µM: SK-MEL-2 melanoma
40.1 µM: MCF7 breast
44.4 µM: A549 NSCLC
